Assay results from patent US10245240B2, “Treatment of prostate carcinoma” (Pellficure Pharmaceuticals, Inc., priority 2010, dated 2019).

Experiments:
[1] = tested on: LNCaP hormone-sensitive human prostate cancer cells; experiment: Dose response plumbagin in human LNCaP cells, cell counting in absence of DHT; type: cell-based; details: no DHT; for % control / cell number/20 mean / cell number/20 trial 1 / cell number/20 trial 2 / cell number/20 trial 3 / cell number/20 trial 4: 24 hours
Experimental: LNCaP hormone-sensitive human prostate cancer cells were placed in androgen withdrawal medium in the absence of DHT (dihydrotestosterone). The absence of DHT simulates surgical or chemical castration. The androgen withdrawal medium was phenol-red free DMEM high-glucose containing 10% charcoal-treated Fetal Bovine Serum.
Plumbagin was added at the indicated concentrations in Table 6 for 24 hours. Cells were trypsinized and counted using a Cell Coulter counter Multisizer II, which excludes debris. The results in Table 6 represent cell numbers as percent of control (in which the number of cells in the absence of drug is 100%). FIG. 8 illustrates the effect of plumbagin in human LNCaP cells.

[2] = tested on: PTEN-P2/GFP tumor; experiment: In vivo effect of plumbagin added two weeks after castration, pseudo-orthotopic chamber model (Example 6); design: species or system nude mice; details: daily plumbagin ip 2 mg/kg, from two weeks after castration
Experimental: Intravital microscopy: Fluorescence microscopy is performed using a Mikron Instrument Microscope equipped with epi-illuminator and video-triggered stroboscopic illumination from a xenon arc (MV-7600, EG&G). A silicon intensified target camera (SIT68, Dage-MTI) is attached to the microscope. A Hamamatsu image processor (Argus 20) with firmware version 2.50 (Hamamatsu Photonic System) is used for image enhancement and for the capture of images to a computer. A Zeiss Plan Neofluar 1.25×/0.035 objective is used to obtain an over-view of the chamber and to determine tumor size. A Zeiss A-Plan 10×/0.25 objective is used to capture images for calculation of vascular parameters. A Zeiss Achroplan 20×/0.5 W objective is used to capture images for calculation of mitotic and apoptotic indices. Our system permits evaluation of the following parameters.
Mitotic and Apoptotic Indices: At each time point, two peripheral and two central ×20 fields of the tumor are captured with a FITC filter and an integrated frame grabber. Only mitotic figures in metaphase-telophase (MI) are included in the mitotic indices to exclude the potential artifact of nuclear membrane distortion. Apoptotic/Pyknotic nuclei are defined as H2B-GFP labeled nuclei with a cross sectional area <30 μm^2. Nuclear karyorrhexis (NK), easily distinguishable by the vesicular nuclear condensation and brightness of H2B-GFP, is included within this apoptotic indices.
Platinum chambers were placed in the dorsal skinfold of nude mice by surgery. Two days later, minced prostate tissue from BalbC mice (syngeneic) was grafted into the chambers and allowed to vascularize for 7 to 10 days. Small tumor cells spheroids were implanted into each chamber. Tumor cells PTEN-P2 stably transfected with H2B-GFP fusion protein (PTEN-P2/GFP) were used in these experiments. The animals were surgically castrated about three weeks after implantation to inhibit androgen production. Surgical castration induces androgen deprivation, and is known in the art to effectively mimic clinical hormone therapy. Two weeks after castration, the mice were treated daily with plumbagin at 2 mg/kg ip.

[3] = tested on: fibrosarcomas; details: cited from earlier work
[4] = tested on: hormone-refractory prostate cancer; details: Aziz et al., Cancer Res. 2008; cited from earlier work
[5] = tested on: prostate carcinoma cells; details: 5 umol/L; cited from earlier work

CC1=CC(=O)c2c(O)cccc2C1=O [Plumbagin, 5-hydroxy-2-methylnaphthalene-1,4-dione]
% control ([1]; 0.5 μM plumbagin): 84.13%
cell number/20 mean ([1]; 0.5 μM plumbagin): 6335
cell number/20 trial 1 ([1]; 0.5 μM plumbagin): 6422
cell number/20 trial 2 ([1]; 0.5 μM plumbagin): 5989
cell number/20 trial 3 ([1]; 0.5 μM plumbagin): 6453
cell number/20 trial 4 ([1]; 0.5 μM plumbagin): 6475
% control ([1]; 1 μM plumbagin): 90.95%
cell number/20 mean ([1]; 1 μM plumbagin): 6849
cell number/20 trial 1 ([1]; 1 μM plumbagin): 6997
cell number/20 trial 2 ([1]; 1 μM plumbagin): 7139
cell number/20 trial 3 ([1]; 1 μM plumbagin): 6769
cell number/20 trial 4 ([1]; 1 μM plumbagin): 6490
% control ([1]; 2 μM plumbagin): 66.23%
cell number/20 mean ([1]; 2 μM plumbagin): 4987
cell number/20 trial 1 ([1]; 2 μM plumbagin): 5324
cell number/20 trial 2 ([1]; 2 μM plumbagin): 5282
cell number/20 trial 3 ([1]; 2 μM plumbagin): 4522
cell number/20 trial 4 ([1]; 2 μM plumbagin): 4821
% control ([1]; 4 μM plumbagin): 42.21%
cell number/20 mean ([1]; 4 μM plumbagin): 3179
cell number/20 trial 1 ([1]; 4 μM plumbagin): 3005
cell number/20 trial 2 ([1]; 4 μM plumbagin): 3082
cell number/20 trial 3 ([1]; 4 μM plumbagin): 3327
cell number/20 trial 4 ([1]; 4 μM plumbagin): 3300
% control ([1]; 6 μM plumbagin): 18.50%
cell number/20 mean ([1]; 6 μM plumbagin): 1393
cell number/20 trial 1 ([1]; 6 μM plumbagin): 1396
cell number/20 trial 2 ([1]; 6 μM plumbagin): 1500
cell number/20 trial 3 ([1]; 6 μM plumbagin): 1323
cell number/20 trial 4 ([1]; 6 μM plumbagin): 1352
% control ([1]; 8 μM plumbagin): 3.93%
cell number/20 mean ([1]; 8 μM plumbagin): 296
cell number/20 trial 1 ([1]; 8 μM plumbagin): 330
cell number/20 trial 2 ([1]; 8 μM plumbagin): 283
cell number/20 trial 3 ([1]; 8 μM plumbagin): 284
cell number/20 trial 4 ([1]; 8 μM plumbagin): 287
efficiency of plumbagin with simulated castration versus castration alone ([1]; in vitro, LNCaP cells): more efficient than treatment castration alone
apoptosis (AP) in tumor [2]: increasing apoptosis
efficiency of combination of plumbagin with castration versus castration alone [2]: more efficient in vivo than castration alone
mitosis (MI) in tumor [2]: mitosis increased
tumor size, castration with plumbagin [2]: significant decreases in tumor size
ED50 [3]: 0.75 mg/kg body weight
effect on growth and invasion of hormone-refractory prostate cancer [4]: inhibited growth and invasion of hormone-refractory prostate cancer
expression of PKCq, PI3K, AKT, activation of AP-1, NF-κB, Stat3 [5]: inhibit expression of multiple molecular targets
